Measured values reported in patent US20080176224A1, “Methods for Identifying a Patient as a Candidate for Treatment with a Long Acting Beta Agonist and for Predicting a Patient's Response to Long Acting Beta2 Agonist Therapy by Analysing Polymorphisms in the Beta2-Adrenergic Receptor Gene” (ASTRAZENECA AB, priority 2004, published 2008).
Counter-ions that a name gives are not always drawn.

Experiments:
[1] = system: patients with stable COPD; test: Serial and pre-dose FEV1 (spirometry) in Viozan phase III clinical trials, stratified by ADRB2 haplotype; format: in vivo, human
Text: (§1) Samples for genotyping were taken from 2450 patients recruited in four Viozan™ phase III clinical trials, namely SC-397-5097, SC-397-5098, SC-397-5099 and SC-397-5163. The patient population included male and female patients, aged 40 to 80 years, with stable COPD, symptoms for ≧2 years, and a smoking history of at least 15 pack years. […] Further details about the patient population, and the study designs, are described in Laursen et al. Respiratory Medicine (2003), Vol 97, Suppl A, S23-S33. Participation in the genetics sub-study was voluntary. Patients gave separate written informed consent for the genetic analysis. Patients all consented to provide DNA for use in studying the response to Viozan™. Viozan™ is a dual agonist, targeting the β2-adrenergic receptor and the […] genes, developed for the treatment of COPD (Rennard, 2003, Respiratory Medicine, Vol 97, Suppl A, S1-S2).
Pre- and post-dose FEV1 (forced expiratory volume in 1 second), the volume of air exhaled in the first second of the FVC manoeuvre (expressed in litres), measurements were taken at each study visit for all patients, as described in the clinical study protocols. Spirometry measurements were performed using a standard technique at each centre. Details about the spirometer used and the calibration records were provided by each centre. After resting for 15 minutes, slow vital capacity (SVC), forced vital capacity (FVC) and FEV1 were measured for at least three separate manoeuvres. The greatest values for each parameter were recorded.
Serial measurements were taken on day 1 (studies SC-397-5097 and SC-397-5098), weeks 8 and 12 (SC-397-5098) and weeks 14 and 26 (SC-397-5097). The AUC0-8, mean FEV1 at 8 hrs and mean maximum change from pre-dose (FEV1 max) were calculated. These measurements were used to investigate the bronchodilator properties of Viozan™, a long-acting β2-agonist.
Because serial FEV1 measurements were available for only a small number of subjects, and to increase the power of the analyses, the data was subsequently analysed in two subgroups (‘binning’) based on the haplotype pair of each patient; “C” haplotypes (i.e. patients having at least one copy of the ‘C’ haplotype) and “non-C” haplotype (i.e. patients having no ‘C’ haplotype). ‘C’ haplotype group included patients with haplotypes AC, BC and CC, whilst the non-C haplotype group included subjects with haplotypes AA, BB and AB. For the ‘binned’ haplotype analyses, subjects with one or more copies of haplotype D and E were not included, as there were few subjects with these haplotype pairs.
Assessment of the relationship between ADRB2 haplotype and the long-term FEV1 response, was achieved by comparing the pre-treatment and pre-dose baselines. The “pre-treatment” FEV1 baseline is for no prior exposure to the study drug, and was measured at day 1 (visit 2), immediately prior to treatment with Viozan™. The “pre-dose” FEV1 baseline is that measured prior to administration of drug on that day at subsequent visits, during the course of the trials, i.e. at weeks 8 and 12 (SC-397-5098) and weeks 14 and 26 (SC-397-5097). […] Observations are consistent with a trend for prolonged bronchodilation in the C haplotype subgroup and better overall long-term lung function in response to regular treatment with Viozan™ and long acting β2-agonists.
Analysis of the serial FEV1 response between first treatment and following 3 months of Viozan™ treatment was determined by subtracting the pre-treatment baseline (visit 2) from the absolute FEV1 measurements collected at visit 2 (day 1) and the combined data for week 12 (SC-397-5098) and week 14 (SC-397-5097). […] Serial FEV1 response at day 1 (visit 2) overlaps with that at 3 months post treatment, for patients in the ‘C’ haplotype subgroup. A similar response is observed for the non-C haplotype group at day 1 (visit 2). However, the serial FEV1 response, in the non-C haplotype group, appears to be reduced after 3 months of treatment. […]

[2] = system: patients with stable COPD; test: BCSS (breathlessness, cough and sputum score) change from baseline in Viozan clinical trials, stratified by ADRB2 haplotype; format: in vivo, human
Text: as §1
Changes in COPD symptoms were assessed using the BCSS (breathlessness, cough and sputum score), also referred to as the TSS (total symptom score). Each symptom, that is breathlessness, cough and sputum, was evaluated daily by the patient and recorded in a diary using a 5-point Likert scale (ranging from 0 to 4, with the higher values indicating more sever symptoms). The three item scores were summed to calculate the BCSS total score, resulting in a value between 0 and 12. The reliability and validity of the BCSS for evaluating symptoms in COPD is discussed in Leidy et al, 2003, Respiratory Medicine, Vol 97, SupplA, S59-S70. A mean change of ±1 point on the BCSS total score represents a substantial improvement in symptom severity for patients with moderate to severe COPD (Celli et al. Respiratory Medicine, (2003) Vol 97, SupplA, S35-43).

asthmatics = details: cited from earlier work
[3] = 3 mth (SC-397-5098) and 6 mth (SC-397-5097) treatment, trend
[4] = first exposure, trials SC-397-5097 and SC-397-5098

Structure (SMILES) | change in baseline (trough) FEV1 over the course of the trials, C-haplotype sub-group [1, 3] | change in baseline (trough) FEV1 over the course of the trials, subjects lacking C-haplotype [1, 3] | serial FEV1 response after 3 months of treatment, non-C haplotype group ([1]; change from pre-treatment baseline, combined week 12 and week 14 data, versus day 1) | time after treatment at which FEV1 response was observed [1, 4] | time for which FEV1 continued to increase post treatment [1, 4] | time of maximum FEV1 increase post study drug [1, 4] | serial FEV1 response, patients with BB haplotype pair ([1]; first exposure, BB (N=13), compared with other haplotype pairs) | serial FEV1 response, patients with BC haplotype ([1]; first exposure, BC (N=21)) | difference in FEV1 between subgroups stratified by ADRB2 haplotype pair ([1]; serial FEV1 at first exposure, haplotype pairs AA, AC, BA, BB, BC) | patients with a clinically significant BCSS response compared to mean placebo response ([2]; C-haplotype group share of the clinical trial population) | BCSS response in C haplotype sub-group versus non-C haplotype group and versus placebo ([2]; change from baseline to final 4 weeks, combined SC-397-5163 and SC-397-5098) | reduction in mean BCSS, 'C' Haps (AC, BC, CC) compared to 'Non-C' Haps (AA, BB, BA) ([2]; combined studies SC-397-5163 and SC-397-5098) | BCSS response in C haplotype sub-group versus non-C haplotype subgroup ([2]; study SC-397-5163, 3 month, C Haps N=84, non-C Haps N=201) | difference in mean BCSS change from baseline to final 4 weeks of treatment, Viozan versus placebo ([2]; unstratified patient population) | lung function response, 2/2 haplotype (asthmatics; 2/2 corresponds to AA) | lung function response, 4/4 haplotype (asthmatics; 4/4 corresponds to BB) | lung function response, 4/6 haplotype (asthmatics; 4/6 corresponds to BC)
O=c1[nH]c2c(O)ccc(CCNCCS(=O)(=O)CCCOCCc3ccccc3)c2s1 [Viozan, Sibenadet HCl] | increase | decrease slightly | reduced | 5 min | up to 2 hours | one to two | smaller | greatest response | approximately 100 cc | approximately 30% | significantly better | up to 0.6 | significantly better | neither statistically significant, nor considered to be of clinical importance |  |  | 
CC(C)(C)NCC(O)c1ccc(O)c(CO)c1 (centres unmarked) [albuterol, albuterol sulphate] |  |  |  |  |  |  |  |  |  |  |  |  |  |  | intermediate response | lowest response | best response
